The METLIN SMRT retention time set (Domingo-Almenara et al. 2019)

Test: gradient 5% acetonitrile 3 min, to 50% in 2 min, to 85% in 15 min, held 3 min, 100 µL/min
Settings: column: Zorbax Extend-C18 2.1 x 50 mm; eluents: water / acetonitrile, 0.1% formic acid
Method in brief: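 Standards, all pure, were combined into mixtures of ~100 molecules and run at 100 μL/min on a Zorbax Extend-C18 column (2.1 × 50 mm, 1.8 μm) with water and acetonitrile, each containing 0.1% formic acid. A coupled quadrupole time-of-flight mass spectrometer operated in positive and negative ionization mode. Retention time values come from computationally picked adduct peaks, each inspected manually.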

Row | RP-LC retention time [s] | SMILES
1 | 650 | CC(C)CCNC(=O)NCCn1c(-c2ccc(F)cc2)nc2ccccc21
2 | 1010 | COc1ccccc1N1CCN(c2nccc(-n3nc(C)cc3C)n2)CC1
3 | 883 | O=C(Nc1cccc(F)c1)N1CCC(CCNC(=O)C2(c3ccccc3)CC2)CC1
4 | 845 | CC(C)n1nc(CNC(=O)c2cccs2)c2ccccc21
5 | 824 | COCCCn1c(C)c(C)c(S(=O)(=O)c2ccccc2)c1NC(=O)C1CCCO1 (centres undefined)
6 | 896 | COc1cccc(CNc2cc(-n3nc(C)cc3C)ncn2)c1
7 | 688 | CCOC(=O)c1nc(Nc2ccc(S(=O)(=O)Nc3ncccn3)cc2)c2ccccc2n1
8 | 1100 | Cc1ccc(-c2csc(-c3cccn3CC(=O)NCc3ccco3)n2)cc1
9 | 743 | Cc1cc2c(cc1S(=O)(=O)N1CCCC1C(=O)Nc1ccc(F)cc1)OCC(=O)N2 (centres undefined)
10 | 1110 | CC(C)Oc1ccc(CNC(=O)c2sc3ncccc3c2-n2cccc2)cc1
11 | 704 | CCc1cccc(NC(=O)C2(C)Oc3cccnc3NC2=O)c1 (centres undefined)
12 | 752 | Cc1cc(C)cc(NC(=O)Cn2nc3c4cc(F)ccc4ncn3c2=O)c1
13 | 728 | CCCn1cc(-c2nc(-c3ccncc3)no2)c(=O)c2cc(F)ccc21
14 | 788 | Cc1ccc(-c2nc3c(C)cccn3c2Nc2ccccc2C)cc1
15 | 681 | COc1ccccc1NC(=O)N1CCCC(Cn2c(C3CC3)nc3cccnc32)C1 (centres undefined)
16 | 1100 | CCc1nc(-c2csc(S(=O)(=O)N3CCCC(C(=O)Nc4ccc(Cl)cc4C)C3)c2)no1 (centres undefined)
17 | 809 | COc1ccc(NC(=O)N2CCCC2c2nc(-c3ccccc3OC)no2)c(C)c1 (centres undefined)
18 | 879 | CCOc1ccccc1C(=O)NC1CCN(c2cc(-c3ccc(Cl)cc3)[nH]n2)C1 (centres undefined)
19 | 641 | O=C(Nc1ccc(S(=O)(=O)Nc2nccs2)cc1)c1ccc([N+](=O)[O-])o1
20 | 795 | CCOC(=O)c1ccc(Nc2c(-c3ccc(N4CCOCC4)cc3)nc3cnccn23)cc1
21 | 907 | CCOC(=O)c1cc2n(n1)CC(C)(C(=O)NC1CCCC1)N(Cc1cccc(F)c1)C2=O (centres undefined)

Row | RP-LC retention time [s] | SMILES
22 | 801 | CN1C(=O)CCc2cc(NS(=O)(=O)c3ccc(Br)s3)ccc21
23 | 932 | Cc1cccc(-n2cc(C(=O)OCc3ccccn3)c3ccccc3c2=O)c1
24 | 1190 | CC(NC(=O)c1c(O)c2cccnc2n(-c2ccccc2)c1=O)c1ccccc1 (centres undefined)
25 | 1160 | O=C(Nc1nc(-c2nc3ccccc3s2)cs1)c1coc2ccccc2c1=O
26 | 858 | CN(Cc1ccco1)c1nc(-c2ccc(Cl)cc2)nc2ccccc12
27 | 1220 | CC(C)(C)c1csc(-c2csc(S(=O)(=O)NCc3ccc(F)cc3F)c2)n1
28 | 1250 | CC(C)n1c(=O)c2ccccc2n(Cc2nc(-c3cccc(Br)c3)no2)c1=O
29 | 872 | CCOc1ccc2ccccc2c1C(=O)NCCc1ccsc1
30 | 683 | CCOC(=O)c1c(N)n(-c2ccccc2)c2nc3ccccc3nc12
31 | 689 | Cc1cnc(-c2ccccc2)n1CCNS(=O)(=O)c1ccc2c(c1)CCC2
32 | 918 | CCn1cc(-c2nc(CC(=O)Nc3ccc(OC)c(Cl)c3)cs2)c2cccnc21
33 | 664 | COc1ccc(CNC(=O)c2cc3c(=O)n(C)ccc3n2C)cc1
34 | 735 | O=C(NCc1cccnc1-c1ccc(F)cc1)c1ccc(Br)cc1
35 | 675 | CCOC(=O)c1ccc(Nc2c(C(=O)N3CCC(C)CC3)cnc3nc(C)ccc23)cc1
36 | 1080 | Cc1ccccc1-c1nc(-c2cccc(-c3ccn[nH]3)c2)no1
37 | 995 | CCc1ccc(Nc2nc(C(=O)NC3CCCCC3)nc3ccccc23)cc1
38 | 914 | CCc1noc(NC(C)=O)c1-c1ccc(C)c(S(=O)(=O)Nc2ccc(C)c(Cl)c2)c1
39 | 720 | Cc1ccc(Cn2cc(-c3ccncc3)cc2C(=O)NCC(C)C)cc1
40 | 951 | CC(C)c1noc(-c2cc(=O)n(CC(=O)NCc3ccc(F)cc3)c3ccccc23)n1
41 | 674 | O=C(NCC(c1cccnc1)c1c[nH]c2ccccc12)Nc1ccc(F)cc1F (centres undefined)

More lines, now with the values behind:

Row | SMILES | RP-LC retention time [s]
42 | Cc1cc2c(cc1S(=O)(=O)N1CCCCC1)N(C(=O)C1CC1)CC2 | 980
43 | Cc1oc2ncnc(N3CCCCC3)c2c1C(=O)N1CCN(c2ccccn2)CC1 | 591
44 | COCCn1cnc2c(-c3ccccc3)cn(CC(=O)NCC3CCCO3)c2c1=O (centres undefined) | 678
45 | CC(=O)N1CCc2cc(N3CC(C(=O)Nc4ccc(C)cc4)CC3=O)ccc21 (centres undefined) | 720
46 | O=C(NCc1cccs1)C1CCCN(c2nnc3c(Cl)cccn23)C1 (centres undefined) | 684
47 | CC(C)(C)c1cc(C(=O)Nc2ccccc2F)nc2ccnn12 | 1380
48 | COc1ccc(C2(C(=O)N3CCc4nn(CC5CC5)c(=O)n4CC3)CC2)cc1 | 709
49 | COc1cccc(CN2C[C@@H]3C(=O)N(Cc4ccc5c(c4)OCO5)C(=O)[C@@H]3C2)c1 | 724
50 | CC(C)C(=O)Nc1ccc2c(c1)Sc1ncccc1C(=O)N2C(C)C | 764
51 | COc1cccc(CNC(=O)C2CCN(S(=O)(=O)c3cn(C(C)C)cn3)CC2)c1 | 714
52 | CN1C(=O)c2cc(C(=O)N3CCOCC3)nn2CC1(C)C(=O)NCc1ccccc1 (centres undefined) | 632
53 | O=C(NCC1(c2cccs2)CC1)c1ccsc1 | 791
54 | COC(=O)C1=CN(c2cc(Cl)c(OC)cc2OC)c2ccccc2S1(=O)=O | 903
55 | Cc1nnc2sc(SCC(=O)Nc3cccc(C(F)(F)F)c3)nn2c1=O | 759
56 | O=C(Cn1cnc2nc(N3CCCC(C(=O)NC4CC4)C3)sc2c1=O)Nc1ccc(Cl)cc1 (centres undefined) | 721
57 | CCOC(=O)[C@@H](C)NC(=O)C1CCN(S(=O)(=O)c2ccc(C)cc2)CC1 | 787
58 | CCOC(=O)Cn1nc2oc(=O)c(CCN3CCN(c4ccccc4OC)CC3)c(C)c2c1C | 726
59 | Cc1noc(C)c1S(=O)(=O)N1CCCCC1c1nncn1C (centres undefined) | 647
60 | CCCN1C(=O)COc2cc(-c3noc(C(=O)NCCC4=CCCCC4)n3)ccc21 | 1180
61 | CCOc1ccc(CNC(=O)C2CCCN(C(=O)c3[nH]c(C)c(C(=O)OC(C)C)c3C)C2)cc1 (centres undefined) | 877
62 | CC(C)Oc1ccc(-c2noc(Cn3c(=O)n(-c4ccc(Cl)cc4)c(=O)c4sccc43)n2)cc1 | 1140
63 | CCN1C(=O)c2cc(C(=O)Nc3cc(C)cc(C)c3)nn2CC1(C)C(=O)NC1CCCC1 (centres undefined) | 917
64 | O=C(NCCc1cccnc1)C1CCc2nc(N3CCCC3)ncc2C1 (centres undefined) | 532
65 | O=S(=O)(c1cc(-c2nnc(C3CCCC3)o2)co1)N1CCCCC1 | 1000

Row | SMILES | RP-LC retention time [s]
66 | Cc1[nH]c(C)c(S(=O)(=O)N2CCC(C(=O)Nc3ccc(Cl)cc3)CC2)c1C(=O)N1CCCC1 | 788
67 | COc1cc(-c2noc(CCn3nc(-c4ccc(F)cc4)ccc3=O)n2)cc(OC)c1OC | 887
68 | O=C(c1cccc(F)c1)N1CCN(C(=O)c2nnn3c2COC(c2ccc(Cl)cc2)C3)CC1 (centres undefined) | 931
69 | O=C(COc1ccc(F)cc1)N1CCC2(CC1)NC(=O)N(Cc1ccc(Cl)cc1)C2=O | 810
70 | CCOC(=O)c1sc(NC(=O)C2CCCCN2S(=O)(=O)c2cccs2)cc1C (centres undefined) | 962
71 | CCC(C)N(CC(=O)N(Cc1ccco1)CC1CCCO1)C(=O)c1ccc(OC)cc1 (centres undefined) | 808
72 | Cc1ccc(NC(=O)CN(C)S(=O)(=O)c2cc(C(=O)N3CCC(C)CC3)n(C)c2)cc1Cl | 998
73 | O=C(NC1CCN(c2cc(-c3ccc(F)cc3)[nH]n2)C1)c1ccc(F)cc1Cl (centres undefined) | 740
74 | O=S(=O)(c1ccc(F)cc1F)N1CCC(CN2CCCCCC2)CC1 | 648
75 | O=S(=O)(NC1CCCC1)c1ccc(-c2cc(C(F)(F)F)on2)o1 | 1060
76 | Cn1ccc2c(cc(C(=O)NCc3ccc4c(c3)OCO4)n2C)c1=O | 660
77 | O=C1CCCCC(C(=O)N2CCOCC2)N1 (centres undefined) | 575
78 | COc1ccc2c(c1)C1(CCN(S(=O)(=O)c3ccc(F)cc3F)C1)C(=O)N2 (centres undefined) | 841
79 | Cc1nc2c(ccc3nc(NC(=O)NC4CCCC4)sc32)s1 | 785
80 | Cc1cccc2c(C(=O)N(C)C)cc(=O)[nH]c12 | 597
81 | Fc1cccc(-c2noc(Cc3nnc(-c4ccc(Cl)cc4)o3)n2)c1 | 995
82 | Cc1cc(Cl)ccc1NC(=O)c1cccn1Cc1noc(C2CC2)n1 | 1020
83 | Cc1nc(C)c(C(=O)NCCn2c(C)cnc2C2CCC2)s1 | 570
84 | CCN(CC)c1nc(C(=O)NCCN2CCN(C)CC2)nc2nc(C)cc(C)c12 | 542
85 | CCc1nncn1C1CCN(C(=O)Nc2ccc(F)c(Cl)c2)C1 (centres undefined) | 661
86 | CCCCC(=O)N1CCN(c2nc3ccccc3nc2C(F)(F)F)CC1 | 1080
87 | Cn1ncc(Br)c1C(=O)N1CCCC1c1cccc(F)c1 (centres undefined) | 867
88 | CC1CCCN(C(=O)c2cn(-c3cc(-c4nc(C(C)(C)C)no4)ccn3)cn2)C1 (centres undefined) | 1040
89 | CCn1nccc1C(=O)N1CCC(c2noc(N)c2C)CC1 | 622
